Several values for one entry are separate records, joined by “and”; a condition that tells them apart may be missing. Equal values may be shown once. Marks after values point to notes of the source that are not given here.
Columns and labels:
MSCH-induced EAE [1] = assay: MSCH-induced EAE in CSJL/F1 mice (Example 2.8); format: in vivo; set-up: key to MMS value (Mean Maximal Score) / GMS value (Group Mean Score): EAE clinical score per grading table; 5 = sacrificed or died
Procedure: Disease was induced in all mice by the injection of the encephalitogenic emulsion (MSCH/CFA). The test articles and the vehicle were administered orally twice a day.
For groups 1 and 3 to 6, 360.0 mg MSCH was suspended in 3.0 ml PBS to yield 120 mg/ml MSCH suspension.
0.05 ml was injected into the left foot-pad of each mouse. The concentration of MSCH in emulsion in all groups was 60 mg/mL. The dose of the MSCH in all the groups was 3.0 mg/0.05 ml/mouse. The concentration of MT in emulsion in all groups was 0.25 mg/mL. The dose of the MT in all the groups was 0.0125 mg/0.05 ml/mouse.
36 μL Pertussis toxin (200 μg/ml) was added to 44.964 ml PBS to yield 160 ng/ml. The pertussis toxin was administered intravenous on the day of encephalitogen injection and 48 hours later (80.0 ng/0.5 ml/mouse).
Solutions at concentration of 0.001, 0.01, 0.03 and 0.1 mg/mL laquinimod were prepared in water for dose levels of 0.01, 0.1, 0.3 and 1.0 mg/kg respectively. The test formulations were stored at 2 to 8° C. until use in amber colored bottles.
The mice were administered with the respective dose levels of laquinimod at volume dose level of 200 μL/mouse. The test formulations were vortexed before dispensing in syringe.
The different dose levels laquinimod were administered to the respective groups once a day.
Scoring of EAE clinical signs was initiated from the 10th day post-EAE induction and was continued daily until Day 23. The clinical signs were recorded on observation cards according to a grading system described in the table 23 above. Animals with score 4 for more than three days were given score 5 and sacrificed for humane reasons. For calculation purposes, the score (5) of animals that are sacrificed or died were carried forward.
The calculations are as shown in Example 2.4.

[2] = Weight of EAE mice (Example 2.1); format: in vivo, C57B1/6 mice
From the text: FIG. 1 is a graphical representation of the experimental results from Example 2.1.
The differences were statistically significant (by MANOVA). […] However, when the first signs appeared the mice started to lose weight. On days 16 and 24 the weight of control mice was statistically different from almost all the others (Table 4, FIG. 1B).

MSCH-induced EAE [3] = assay: MSCH-induced EAE in CSJL mice (Example 2.7); format: in vivo, CSJL/F1 mice
[4] = LAQ 0.01 mg/kg daily, orally by gavage
[5] = LAQ 0.1 mg/kg daily, orally by gavage
[6] = LAQ 0.3 mg/kg daily, orally by gavage
[7] = LAQ 1.0 mg/kg daily, orally by gavage
[8] = laquinimod 0.1 mg/kg/day oral, alone or + GA 0.5 mg/kg
[9] = laquinimod 5 mg/kg/day, alone or + GA-blocking
[10] = laquinimod 25 mg/kg/day, alone or + GA-blocking
[11] = LAQ 0.01 mg/kg/day oral, alone or + GA Blocking 0.5 mg/kg
[12] = LAQ 0.1 mg/kg/day oral, alone or + GA Blocking 0.5 mg/kg
[13] = GA 0.5 mg/kg (sub optimal) with encephalitogen
[14] = GA blocking 0.5 mg/kg (sub-optimal dose), with encephalitogen

## CCN(C(=O)c1c(O)c2c(Cl)cccc2n(C)c1=O)c1ccccc1 [laquinimod]
MSCH-induced EAE [1]; [4]
  % Inhibition 1 (according to Incidence): 0.0%
  % Inhibition 2 (according to MMS): 24.4%
  % Inhibition 3 (according to GMS): 35.3%( )
  GMS value (Group Mean Score): 2.2 ± 1.2
  Incidence: 10/11
  MMS value (Mean Maximal Score): 3.4 ± 1.4
  Mean Duration: 9.5 days
  Mortality: 2/11
  Onset: 13.7 days
MSCH-induced EAE [1]; [5]
  % Inhibition 1 (according to Incidence): 90.0%
  % Inhibition 2 (according to MMS): 42.2%
  % Inhibition 3 (according to GMS): 55.9%( )
  GMS value (Group Mean Score): 1.5 ± 1.2
  Incidence: 1/11
  MMS value (Mean Maximal Score): 2.6 ± 1.8
  Mean Duration: 6.9 days
  Mortality: 8/11
  Onset: 16.5 days
MSCH-induced EAE [1]; [6]
  % Inhibition 1 (according to Incidence): 30.0%
  % Inhibition 2 (according to MMS): 53.3%
  % Inhibition 3 (according to GMS): 73.5%( )
  GMS value (Group Mean Score): 0.9 ± 0.9
  Incidence: 7/11
  MMS value (Mean Maximal Score): 2.1 ± 1.8
  Mean Duration: 4.2 days
  Mortality: 1/11
  Onset: 17.3 days
MSCH-induced EAE [1]; [7]
  % Inhibition 1 (according to Incidence): 90.0%
  % Inhibition 2 (according to MMS): 93.3%
  % Inhibition 3 (according to GMS): 97.1%( )
  GMS value (Group Mean Score): 0.1 ± 0.3
  Incidence: 1/11
  MMS value (Mean Maximal Score): 0.3 ± 0.9
  Mean Duration: 0.5 days
  Mortality: 0/11
  Onset: 23.5 days
MSCH-induced EAE [1]; laquinimod 0.01 mg/kg/day oral
  Incidence: 91%
  activity according to GMS: 35.3%
  activity according to incidence: 9.1%
  duration of disease: 13.7 ± 3.8 days
  onset of disease: 9.5 ± 3.9 days
MSCH-induced EAE [1]; [8]
  activity according to GMS: 55.9%
  activity according to incidence: 27.3%
MSCH-induced EAE [1]; laquinimod 0.3 mg/kg/day oral
  activity according to GMS: 73.5%
  activity according to incidence: 36.4%
MSCH-induced EAE [1]; laquinimod 1.0 mg/kg as printed, alone or + GA 0.5 mg/kg
  activity (conclusion): 55.9%
MSCH-induced EAE [1]; laquinimod 1.0 mg/kg/day oral
  activity according to GMS: 97.1%
  activity according to incidence: 90.9%
[2]; [9]
  weight, day 5 after induction: 17.5
  weight, day 10 after induction: 18.5
  weight, day 16 after induction: 18.6
  weight, day 24 after induction: 16.5
  weight, day 30 after induction: 16.0
[2]; [10]
  weight, day 5 after induction: 17.8
  weight, day 10 after induction: 18.9
  weight, day 16 after induction: 19.1*
  weight, day 24 after induction: 17.5
  weight, day 30 after induction: 17.6
MSCH-induced EAE [3]; [11]
  % Inhibition 1 (incidence): 0.0%
  GMS % Inhibition 3: 16.7%
  GMS value: 3.5 ± 0.9
  Incidence: 10/10
  MMS % Inhibition 2: 4.0%
  MMS value: 4.8 ± 0.4
  Mean Duration: 11.5 ± 0.8 days
  Mean Onset: 12.5 ± 0.8 days
MSCH-induced EAE [3]; [12]
  % Inhibition 1 (incidence): 10.0%
  GMS % Inhibition 3: 31.0%
  GMS value: 2.9 ± 1.5
  Incidence: 9/10
  MMS % Inhibition 2: 18.0%
  MMS value: 4.2 ± 1.7
  Mean Duration: 9.8 ± 4.0 days
  Mean Onset: 14.2 ± 4.0 days
MSCH-induced EAE [3]; LAQ 0.3 mg/kg/day oral
  % Inhibition 1 (incidence): 0.0%
  GMS % Inhibition 3: 28.6%
  GMS value: 3.0 ± 1.2
  Incidence: 10/10
  MMS % Inhibition 2: 16.0%
  MMS value: 4.2 ± 1.0
  Mean Duration: 10.8 ± 2.0 days
  Mean Onset: 13.2 ± 2.0 days
  Mortality: 6/10
MSCH-induced EAE [3]; LAQ 1.0 mg/kg/day oral
  % Inhibition 1 (incidence): 0.0%
  GMS % Inhibition 3: 38.1%
  GMS value: 2.6 ± 1.1
  Incidence: 10/10
  MMS % Inhibition 2: 28.0%
  MMS value: 3.6 ± 0.0
  Mean Duration: 10.7 ± 1.9 days
  Mean Onset: 13.0 ± 2.0 days
  Mortality: 3/10
MSCH-induced EAE [3]; mouse, in vivo
  Mortality: 7/10 and 8/10

## L-glutamic acid polymer with L-alanine, L-lysine and L-tyrosine, acetate (salt) [GA]
MSCH-induced EAE [1]; [13]
  Incidence: 4/11
  MMS: 1.1±15
  activity according to GMS: 79.4%
MSCH-induced EAE [1]; [14]
  % Inhibition 1 (according to Incidence): 60.0%
  % Inhibition 2 (according to MMS): 75.5%
  % Inhibition 3 (according to GMS): 79.4%( )
  GMS value (Group Mean Score): 0.7 ± 1.0
  Incidence: 4/11
  MMS value (Mean Maximal Score): 1.1 ± 1.5
  Mean Duration: 3.6 days
  Onset: 20.4 days
[2]; GA-blocking alone
  weight, day 5 after induction: 17.9
  weight, day 10 after induction: 19.3
  weight, day 16 after induction: 19.9**
  weight, day 24 after induction: 18.0*
  weight, day 30 after induction: 18.2
MSCH-induced EAE [3]; [14]
  % Inhibition 1 (incidence): 30.0%
  GMS % Inhibition 3: 61.9%
  GMS value: 1.6 ± 1.5
  Incidence: 7/10
  MMS % Inhibition 2: 42.0%
  MMS value: 2.9 ± 2.1
  Mean Duration: 5.8 ± 4.5 days
  Mean Onset: 17.0 ± 4.9 days

Reference: US20160038532A1, “Treatment of Multiple Sclerosis With Combination of Laquinimod and Glatiramer Acetate” (TEVA PHARMACEUTICAL INDUSTRIES, LTD., priority 2011, published 2016)
